Common to all, as to assay: Kinase profiling in a biochemical assay panel (mobility shift assays and ELISA), %-inhibition at 1 μM; selectivity entropy
For orientation: An ELISA detects its analyte on a solid surface through an enzyme-linked reagent.

For test [1], the target named is panel of more than 300 wild-type and mutant kinases (313 kinase panel) (Homo sapiens, UniProt Q9Y243). The following applies: kinase AKT3; 1 μM compound.
Test [2] addresses T1, panel of more than 300 wild-type and mutant kinases (313 kinase panel) (Homo sapiens, UniProt Q12851).
T1 sequence (Q12851 1-820): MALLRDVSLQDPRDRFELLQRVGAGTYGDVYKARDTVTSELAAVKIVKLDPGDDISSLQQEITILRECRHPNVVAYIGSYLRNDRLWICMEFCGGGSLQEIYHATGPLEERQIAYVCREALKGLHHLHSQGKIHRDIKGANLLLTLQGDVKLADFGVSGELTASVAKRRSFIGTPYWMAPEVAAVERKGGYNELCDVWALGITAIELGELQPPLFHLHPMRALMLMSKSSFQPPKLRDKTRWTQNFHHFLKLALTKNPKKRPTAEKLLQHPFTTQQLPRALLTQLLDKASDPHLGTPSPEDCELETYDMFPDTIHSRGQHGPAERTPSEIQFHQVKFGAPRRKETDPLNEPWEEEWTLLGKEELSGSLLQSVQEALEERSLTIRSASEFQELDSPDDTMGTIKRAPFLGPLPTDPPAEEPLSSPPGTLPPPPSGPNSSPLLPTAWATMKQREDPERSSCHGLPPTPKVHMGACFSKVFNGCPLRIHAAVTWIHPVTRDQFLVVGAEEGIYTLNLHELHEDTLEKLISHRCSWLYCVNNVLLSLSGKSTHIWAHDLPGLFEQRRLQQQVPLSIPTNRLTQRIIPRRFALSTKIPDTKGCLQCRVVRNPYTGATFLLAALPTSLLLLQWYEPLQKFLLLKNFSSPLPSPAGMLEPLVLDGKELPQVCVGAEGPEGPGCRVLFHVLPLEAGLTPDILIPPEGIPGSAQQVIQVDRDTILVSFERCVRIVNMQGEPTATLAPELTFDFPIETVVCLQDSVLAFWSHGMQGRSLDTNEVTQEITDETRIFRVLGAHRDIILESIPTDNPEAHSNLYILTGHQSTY
Conditions: kinase MAP4K2; compound at 1 μM.

The target of test [3] is T2, panel of more than 300 wild-type and mutant kinases (313 kinase panel) (Homo sapiens, UniProt P30530).
T2 sequence (P30530 26-894): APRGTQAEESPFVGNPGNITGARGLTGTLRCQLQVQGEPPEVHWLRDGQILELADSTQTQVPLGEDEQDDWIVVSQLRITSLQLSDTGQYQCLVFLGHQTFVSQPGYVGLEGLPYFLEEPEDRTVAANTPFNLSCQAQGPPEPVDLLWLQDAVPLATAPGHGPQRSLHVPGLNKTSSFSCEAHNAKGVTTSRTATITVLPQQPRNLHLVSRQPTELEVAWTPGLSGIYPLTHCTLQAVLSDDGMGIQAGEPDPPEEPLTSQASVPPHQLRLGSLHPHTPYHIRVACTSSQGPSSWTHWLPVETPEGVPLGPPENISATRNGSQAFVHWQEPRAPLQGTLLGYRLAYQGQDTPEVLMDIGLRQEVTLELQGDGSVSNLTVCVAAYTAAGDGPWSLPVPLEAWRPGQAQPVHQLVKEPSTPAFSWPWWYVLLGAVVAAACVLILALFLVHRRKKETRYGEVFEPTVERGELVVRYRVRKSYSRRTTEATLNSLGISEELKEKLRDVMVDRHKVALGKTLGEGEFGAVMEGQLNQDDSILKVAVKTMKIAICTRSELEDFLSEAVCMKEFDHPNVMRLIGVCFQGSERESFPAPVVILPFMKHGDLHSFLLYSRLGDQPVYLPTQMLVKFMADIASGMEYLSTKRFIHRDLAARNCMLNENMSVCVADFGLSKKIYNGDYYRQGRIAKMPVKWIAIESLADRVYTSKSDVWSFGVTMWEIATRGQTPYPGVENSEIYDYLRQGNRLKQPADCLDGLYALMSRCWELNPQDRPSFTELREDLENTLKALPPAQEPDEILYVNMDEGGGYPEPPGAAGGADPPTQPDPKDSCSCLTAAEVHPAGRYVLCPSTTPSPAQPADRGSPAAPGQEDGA
The following applies: kinase AXL; 1 μM compound.

The target of test [4] is panel of more than 300 wild-type and mutant kinases (313 kinase panel) (Homo sapiens, UniProt Q05397). The following applies: kinase FAK; compound at 1 μM.
Test [5] has as its target panel of more than 300 wild-type and mutant kinases (313 kinase panel) (Homo sapiens, UniProt P10721, V654A).
Test [6] has as its target panel of more than 300 wild-type and mutant kinases (313 kinase panel) (Homo sapiens, UniProt Q86V86).
In test [7] the target is panel of more than 300 wild-type and mutant kinases (313 kinase panel) (Homo sapiens, UniProt Q9Y6E0). Conditions: kinase MST3; 1 μM.
The target in test [8] is panel of more than 300 wild-type and mutant kinases (313 kinase panel) (Homo sapiens, UniProt P23458).
Test [9] concerns the target panel of more than 300 wild-type and mutant kinases (313 kinase panel) (Homo sapiens, UniProt P51617). Conditions: kinase IRAK1; compound at 1 μM.
The target of test [10] is panel of more than 300 wild-type and mutant kinases (313 kinase panel) (Homo sapiens, UniProt P24723). The following applies: kinase PKCη; 1 μM.
Sequence of panel of more than 300 wild-type and mutant kinases (313 kinase panel) (Homo sapiens, UniProt P24723) (P24723 whole entry, stated change not applied): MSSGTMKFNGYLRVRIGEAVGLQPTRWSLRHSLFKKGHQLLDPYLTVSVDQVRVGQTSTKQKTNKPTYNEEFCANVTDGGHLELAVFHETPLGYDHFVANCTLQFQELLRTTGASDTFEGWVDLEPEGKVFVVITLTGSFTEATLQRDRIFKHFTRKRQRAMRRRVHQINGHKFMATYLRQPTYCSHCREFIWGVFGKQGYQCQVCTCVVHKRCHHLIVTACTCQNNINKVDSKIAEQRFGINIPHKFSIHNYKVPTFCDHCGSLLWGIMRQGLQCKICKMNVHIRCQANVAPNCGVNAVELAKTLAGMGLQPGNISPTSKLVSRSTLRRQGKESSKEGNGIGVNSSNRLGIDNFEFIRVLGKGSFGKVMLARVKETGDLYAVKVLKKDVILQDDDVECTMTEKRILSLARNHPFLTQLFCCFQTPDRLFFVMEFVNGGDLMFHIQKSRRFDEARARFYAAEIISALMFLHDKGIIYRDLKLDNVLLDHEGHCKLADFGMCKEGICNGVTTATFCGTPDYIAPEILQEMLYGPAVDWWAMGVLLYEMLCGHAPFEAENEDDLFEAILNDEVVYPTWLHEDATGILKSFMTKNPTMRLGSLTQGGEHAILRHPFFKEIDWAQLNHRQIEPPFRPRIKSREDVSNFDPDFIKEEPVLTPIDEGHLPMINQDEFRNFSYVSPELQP
The mark [11] stands for this setting: kinase KIT(V654A), compound at 1 μM.

Sequence of panel of more than 300 wild-type and mutant kinases (313 kinase panel) (Homo sapiens, UniProt P10721, V654A) (P10721 26-976 V654A): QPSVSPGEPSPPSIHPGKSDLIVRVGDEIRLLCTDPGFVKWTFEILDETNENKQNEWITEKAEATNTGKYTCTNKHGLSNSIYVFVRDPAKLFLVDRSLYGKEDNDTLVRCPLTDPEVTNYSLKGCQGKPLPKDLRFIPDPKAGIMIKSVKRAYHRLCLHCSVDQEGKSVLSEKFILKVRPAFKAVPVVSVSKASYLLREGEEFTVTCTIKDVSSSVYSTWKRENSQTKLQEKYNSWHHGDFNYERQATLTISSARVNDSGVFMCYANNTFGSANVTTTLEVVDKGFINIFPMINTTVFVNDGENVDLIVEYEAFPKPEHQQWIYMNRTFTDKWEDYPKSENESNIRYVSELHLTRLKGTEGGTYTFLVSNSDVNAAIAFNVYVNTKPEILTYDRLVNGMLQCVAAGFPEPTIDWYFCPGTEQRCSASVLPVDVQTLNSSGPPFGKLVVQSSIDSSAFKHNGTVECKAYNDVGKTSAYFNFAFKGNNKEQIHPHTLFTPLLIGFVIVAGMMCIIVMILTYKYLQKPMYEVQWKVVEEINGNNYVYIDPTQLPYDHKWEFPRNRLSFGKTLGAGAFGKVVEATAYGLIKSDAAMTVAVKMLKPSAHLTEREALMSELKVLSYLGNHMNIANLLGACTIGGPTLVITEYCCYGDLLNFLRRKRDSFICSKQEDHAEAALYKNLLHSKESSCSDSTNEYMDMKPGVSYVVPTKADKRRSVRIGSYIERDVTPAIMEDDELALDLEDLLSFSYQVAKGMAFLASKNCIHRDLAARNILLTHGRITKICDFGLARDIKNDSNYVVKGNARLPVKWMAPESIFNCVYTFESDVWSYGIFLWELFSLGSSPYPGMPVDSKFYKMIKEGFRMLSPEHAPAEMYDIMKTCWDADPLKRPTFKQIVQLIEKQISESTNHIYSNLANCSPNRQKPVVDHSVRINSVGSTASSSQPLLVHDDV
Sequence of panel of more than 300 wild-type and mutant kinases (313 kinase panel) (Homo sapiens, UniProt Q9Y243) (Q9Y243 whole entry, change not shown): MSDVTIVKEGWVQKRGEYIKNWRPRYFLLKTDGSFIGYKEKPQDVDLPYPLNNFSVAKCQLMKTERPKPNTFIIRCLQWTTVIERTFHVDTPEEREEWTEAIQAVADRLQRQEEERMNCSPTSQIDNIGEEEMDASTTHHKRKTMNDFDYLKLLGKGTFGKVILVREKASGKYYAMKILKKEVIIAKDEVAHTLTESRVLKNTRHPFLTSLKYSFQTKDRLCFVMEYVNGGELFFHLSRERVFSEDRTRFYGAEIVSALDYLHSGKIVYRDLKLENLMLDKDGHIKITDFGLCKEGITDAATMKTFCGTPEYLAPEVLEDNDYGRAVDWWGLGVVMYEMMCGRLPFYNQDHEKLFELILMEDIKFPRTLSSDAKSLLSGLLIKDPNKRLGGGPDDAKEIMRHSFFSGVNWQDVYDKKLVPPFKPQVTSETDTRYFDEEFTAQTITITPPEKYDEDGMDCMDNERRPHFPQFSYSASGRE

Take `CO[C@H]1C[C@@H]2CC[C@@H](C)[C@@](O)(O2)C(=O)C(=O)N2CCCC[C@H]2C(=O)O[C@H]([C@H](C)C[C@@H]2CC[C@@H](OCCO)[C@H](OC)C2)CC(=O)[C@H](C)/C=C(\C)[C@@H](O)[C@@H](OC)C(=O)[C@H](C)C[C@H](C)/C=C/C=C/C=C/1C` [everolimus]: in test [1], the “%-inhibition, AKT3” value is recorded as -3.39%. Also, the “%-inhibition of MAP4K2” value in test [2] is reported as -7%. In test [3], the “%-inhibition, AXL” value is listed as -1.68%. Also, in test [4], the “%-inhibition of FAK” value is given as -4%. In addition, the “%-inhibition of KIT(V654A)” value in test [5] (setting [11]) is listed as -3.52%. Besides, the “%-inhibition of PIM3” value in test [6] (kinase PIM3, 1 μM) is recorded as -4%. Also, the “%-inhibition of MST3” value in [7] is 0.288%. Besides, in [8] (kinase JAK1, compound at 1 μM), the “%-inhibition of JAK1” value is -7%. Moreover, in test [9], the “%-inhibition of IRAK1” value worked out at 12%. Further, in test [10], the “%-inhibition of PKCη” value came out at 9%.

`O=S(=O)(c1cccc2cnccc12)N1CCCNCC1` [fasudil]: the “%-inhibition, AKT3” value in test [1] stood at 6%. For the same compound, the “%-inhibition of MAP4K2” value in test [2] came to 4%. In addition, the “%-inhibition, AXL” value in test [3] is 2.62%. In test [4], the “%-inhibition of FAK” value is on record as -4%. Also, in [5] (setting [11]), the “%-inhibition of KIT(V654A)” value is given as -4%. For the same compound, the “%-inhibition of PIM3” value in test [6] (kinase PIM3, 1 μM) is 3.45%. Further, in test [7], the “%-inhibition of MST3” value is -1.29%. Further, the “%-inhibition of JAK1” value in test [8] (kinase JAK1, compound at 1 μM) is reported as -1.43%. Further, in [9], the “%-inhibition of IRAK1” value was determined as 3.42%. The “%-inhibition of PKCη” value in [10] was determined as 35%.

For `Cc1cn(-c2cc(NC(=O)c3ccc(C)c(Nc4nccc(-c5cccnc5)n4)c3)cc(C(F)(F)F)c2)cn1` [nilotinib], the “%-inhibition, AKT3” value in test [1] came out at 1.58%. Moreover, the “%-inhibition of MAP4K2” value in [2] is reported as 3.24%. Also, the “%-inhibition, AXL” value in test [3] is -4.75%. For the same compound, the “%-inhibition of FAK” value in [4] was found to be 3.25%. Moreover, in [5] (1 µM), the “%-inhibition of KIT(V654A)” value amounted to 19%. Moreover, in [6] (1 µM), the “%-inhibition of PIM3” value came to 13%. Besides, the “%-inhibition of MST3” value in [7] turned out to be 0.797%. The “%-inhibition of JAK1” value in test [8] (1 µM) is 13%. Besides, the “%-inhibition of IRAK1” value in test [9] was 8%. Moreover, the “%-inhibition of PKCη” value in test [10] is listed as 5.43%.

`Cc1ccc(Nc2nccc(N(C)c3ccc4c(C)n(C)nc4c3)n2)cc1S(N)(=O)=O` [pazopanib]: in [1], the “%-inhibition, AKT3” value is reported as -0.112%. In addition, in [2], the “%-inhibition of MAP4K2” value stood at 71%. Moreover, the “%-inhibition, AXL” value in test [3] is reported as 24%. Also, the “%-inhibition of FAK” value in test [4] is recorded as 46%. In addition, in test [5] (setting [11]), the “%-inhibition of KIT(V654A)” value was found to be 87%. Also, in [6] (kinase PIM3, 1 μM), the “%-inhibition of PIM3” value is -4%. For the same compound, the “%-inhibition of MST3” value in test [7] is on record as -4.48%. In test [8] (kinase JAK1, compound at 1 μM), the “%-inhibition of JAK1” value is on record as 9%. Besides, the “%-inhibition of IRAK1” value in [9] came to 8%. For the same compound, the “%-inhibition of PKCη” value in [10] was -1.67%.

In the case of `CO[C@H]1C[C@@H]2CC[C@@H](C)[C@@](O)(O2)C(=O)C(=O)N2CCCC[C@H]2C(=O)O[C@H]([C@H](C)C[C@@H]2CC[C@@H](OC(=O)C(C)(CO)CO)[C@H](OC)C2)CC(=O)[C@H](C)/C=C(\C)[C@@H](O)[C@@H](OC)C(=O)[C@H](C)C[C@H](C)/C=C/C=C/C=C/1C` [temsirolimus], the “%-inhibition, AKT3” value in test [1] was -1.72%. The “%-inhibition of MAP4K2” value in [2] is -3%. In addition, the “%-inhibition, AXL” value in [3] was -1.78%. In addition, the “%-inhibition of FAK” value in test [4] is reported as -5.48%. The “%-inhibition of KIT(V654A)” value in test [5] (setting [11]) was -4.65%. Also, the “%-inhibition of PIM3” value in test [6] (kinase PIM3, 1 μM) is on record as -1.31%. In addition, the “%-inhibition of MST3” value in [7] is given as -3.6%. In addition, the “%-inhibition of JAK1” value in test [8] (kinase JAK1, compound at 1 μM) is listed as -7%. Besides, in [9], the “%-inhibition of IRAK1” value was determined as 13%. For the same compound, in test [10], the “%-inhibition of PKCη” value came out at 8%.

`CC(=O)Nc1cccc(-n2c(=O)n(C3CC3)c(=O)c3c(Nc4ccc(I)cc4F)n(C)c(=O)c(C)c32)c1` [trametinib]: the “%-inhibition, AKT3” value in test [1] is given as -5.3%. Also, the “%-inhibition of MAP4K2” value in test [2] was determined as 4%. For the same compound, in test [3], the “%-inhibition, AXL” value is recorded as -1.12%. Also, the “%-inhibition of FAK” value in test [4] is given as -2.41%. The “%-inhibition of KIT(V654A)” value in test [5] (setting [11]) is given as -1.62%. In addition, in [6] (kinase PIM3, 1 μM), the “%-inhibition of PIM3” value was found to be 8.44%. In test [7], the “%-inhibition of MST3” value amounted to 1.75%. In addition, the “%-inhibition of JAK1” value in [8] (kinase JAK1, compound at 1 μM) is -1.83%. For the same compound, the “%-inhibition of IRAK1” value in test [9] came out at 6%. In test [10], the “%-inhibition of PKCη” value is -8%.

Regarding `CCCS(=O)(=O)Nc1ccc(F)c(C(=O)c2c[nH]c3ncc(-c4ccc(Cl)cc4)cc23)c1F` [vemurafenib], the “%-inhibition, AKT3” value in test [1] was -0.678%. The “%-inhibition of MAP4K2” value in [2] is on record as 43%. Besides, the “%-inhibition, AXL” value in test [3] stood at 20%. In addition, in test [4], the “%-inhibition of FAK” value is listed as -3.55%. Besides, in test [5] (setting [11]), the “%-inhibition of KIT(V654A)” value was -1.8%. In [6] (kinase PIM3, 1 μM), the “%-inhibition of PIM3” value was -5%. Moreover, the “%-inhibition of MST3” value in [7] is -1.73%. In addition, the “%-inhibition of JAK1” value in [8] (kinase JAK1, compound at 1 μM) turned out to be 46%. Also, the “%-inhibition of IRAK1” value in test [9] is reported as 10%. Besides, the “%-inhibition of PKCη” value in test [10] is -22%.
